Measurements reported in ChEMBL document CHEMBL1201862, “PubChem BioAssay data set” (2004).
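Method: 48-hour compound exposure of cells in 96-well plates, five concentrations, linear interpolation of endpoints. GI50 is the concentration that inhibits growth by half.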 The source made the active and inactive calls. Cut-off read from the data, not from the text of the source: active = GI50 up to about 1.1 µM and inactive = higher.

Columns and labels:
Assay in all cases: growth of human tumour cells (NCI), 48 h
[1] = tested on: COLO 205
[2] = tested on: SF-295
[3] = tested on: HL-60
[4] = tested on: SNB-75
[5] = tested on: K562
[6] = tested on: IGROV-1
[7] = tested on: CAKI-1
[8] = tested on: OVCAR-4
[9] = tested on: SF-539
[10] = tested on: A498
[11] = tested on: SR
[12] = tested on: Malme-3M
[13] = tested on: NCI-H522

In the case of COc1ccc2c3c(c(C(=O)c4ccccc4)oc13)CCC2, the GI50 [1] is reported as > 100 µM (inactive), the GI50 [2] is reported as > 100 µM (inactive) and the GI50 [3] is reported as > 100 µM (inactive). For the same molecule, the GI50 [4] was 81.5 µM (inactive), the GI50 [5] was > 100 µM (inactive) and the GI50 [6] was > 100 µM (inactive). For the same molecule, the GI50 [7] was > 100 µM (inactive), the GI50 [8] was > 100 µM (inactive) and the GI50 [9] was > 100 µM (inactive). For the same molecule, the GI50 [10] was > 100 µM (inactive).

With C/C(CC(=O)N(C(C)C)C(C)C)=N\NC(=O)c1ccncc1 the GI50 [1] was > 100 µM (inactive), the GI50 [2] was > 100 µM (inactive) and the GI50 [3] was > 100 µM (inactive). The GI50 [4] was 95.7 µM (inactive), the GI50 [5] was > 100 µM (inactive) and the GI50 [6] was > 100 µM (inactive). The GI50 [11] was > 100 µM (inactive), the GI50 [8] was > 100 µM (inactive) and the GI50 [9] was > 100 µM (inactive). For the same molecule, the GI50 [12] was > 100 µM (inactive), the GI50 [10] was > 100 µM (inactive) and the GI50 [13] was > 100 µM (inactive).

In the case of COc1c(C)cc2c(c1O)C1NC(C2)[C@H](O)N2C3COC(=O)[C@@]4(CS[C@@H](c5c(OC(C)=O)c(C)c6c(c53)OCO6)C12)NCCC1=C4NC2C=CC=CC12 (some centres not stated), the GI50 [1] is reported as < 0.01 µM (active), the GI50 [2] is reported as < 0.01 µM (active) and the GI50 [3] is reported as < 0.01 µM (active). For the same molecule, the GI50 [4] was < 0.01 µM (active), the GI50 [5] was < 0.01 µM (active) and the GI50 [6] was < 0.01 µM (active). The GI50 [11] was < 0.01 µM (active), the GI50 [9] was < 0.01 µM (active) and the GI50 [12] was < 0.01 µM (active). The GI50 [10] was < 0.01 µM (active).

In the case of O=C1COc2cc(NC(=S)Nc3ccccc3)ccc2N1, the GI50 [1] is reported as > 100 µM (inactive), the GI50 [2] is reported as > 100 µM (inactive) and the GI50 [3] is reported as > 100 µM (inactive). For the same molecule, the GI50 [4] was > 100 µM (inactive), the GI50 [5] was > 100 µM (inactive) and the GI50 [6] was > 100 µM (inactive). For the same molecule, the GI50 [7] was > 100 µM (inactive), the GI50 [11] was > 100 µM (inactive) and the GI50 [8] was > 100 µM (inactive). The GI50 [9] was > 100 µM (inactive), the GI50 [12] was > 100 µM (inactive) and the GI50 [13] was > 100 µM (inactive).

Cc1ccc(S(=O)(=O)N2CCC2c2ccccc2)cc1 (configuration not stated) was tested, and the GI50 [1] was > 100 µM (inactive), the GI50 [2] was 74.6 µM (inactive) and the GI50 [3] was 7.13 µM (inactive). For the same molecule, the GI50 [4] was 72.6 µM (inactive), the GI50 [5] was 41.8 µM (inactive) and the GI50 [6] was > 100 µM (inactive). The GI50 [8] was 46.6 µM (inactive), the GI50 [9] was > 100 µM (inactive) and the GI50 [12] was > 100 µM (inactive). The GI50 [10] was > 100 µM (inactive) and the GI50 [13] was 74 µM (inactive).

With N/C(=N\O)N/N=C/c1ccc(C(F)(F)F)cc1 the GI50 [1] was 17.9 µM (inactive), the GI50 [2] was 26 µM (inactive) and the GI50 [3] was 10.9 µM (inactive). For the same molecule, the GI50 [4] was 26.7 µM (inactive), the GI50 [5] was 16.9 µM (inactive) and the GI50 [6] was 7.41 µM (inactive). The GI50 [7] was 6.46 µM (inactive), the GI50 [11] was 6.85 µM (inactive) and the GI50 [8] was 4.86 µM (inactive). The GI50 [9] was 15.8 µM (inactive), the GI50 [12] was 16.7 µM (inactive) and the GI50 [10] was 17.1 µM (inactive). The GI50 [13] was 10.3 µM (inactive).

With COc1ccc2c3c([nH]c2c1[N+](=O)[O-])C(C)N(Cc1ccccc1)CC3 (configuration not stated) the GI50 [1] was 3.17 µM (inactive), the GI50 [2] was 2.02 µM (inactive) and the GI50 [3] was 2.18 µM (inactive). The GI50 [5] was 0.643 µM (active), the GI50 [6] was 3.57 µM (inactive) and the GI50 [7] was 2.47 µM (inactive). The GI50 [11] was 4.49 µM (inactive), the GI50 [8] was 13.9 µM (inactive) and the GI50 [9] was 1.79 µM (inactive). For the same molecule, the GI50 [10] was 2.4 µM (inactive).

In the case of COc1cc2ccnc(C#N)c2cc1OCc1ccccc1, the GI50 [2] is reported as 32.1 µM (inactive), the GI50 [4] is reported as 21.9 µM (inactive) and the GI50 [5] is reported as > 100 µM (inactive). For the same molecule, the GI50 [7] was > 100 µM (inactive), the GI50 [8] was 33.7 µM (inactive) and the GI50 [9] was 49.9 µM (inactive). For the same molecule, the GI50 [12] was > 100 µM (inactive), the GI50 [10] was 87.1 µM (inactive) and the GI50 [13] was 50 µM (inactive).

For Nc1nc(SCCNC(=O)CCc2ccc(O)cc2)nc2c1ncn2C1OC(CO)C(O)C1O (configuration not stated), the GI50 [1] was > 203 µM (inactive), the GI50 [2] was > 203 µM (inactive) and the GI50 [3] was > 203 µM (inactive). The GI50 [4] was > 203 µM (inactive), the GI50 [5] was > 203 µM (inactive) and the GI50 [6] was > 203 µM (inactive). For the same molecule, the GI50 [7] was > 203 µM (inactive), the GI50 [11] was > 203 µM (inactive) and the GI50 [8] was > 203 µM (inactive). The GI50 [9] was > 203 µM (inactive), the GI50 [12] was > 203 µM (inactive) and the GI50 [10] was > 203 µM (inactive). The GI50 [13] was > 203 µM (inactive).

COC1OC(CO)C(O)C(O)C1Br (configuration not stated) was tested, and the GI50 [1] was > 100 µM (inactive), the GI50 [2] was > 100 µM (inactive) and the GI50 [3] was > 100 µM (inactive). The GI50 [5] was > 100 µM (inactive), the GI50 [6] was > 100 µM (inactive) and the GI50 [7] was > 100 µM (inactive). The GI50 [11] was > 100 µM (inactive), the GI50 [8] was > 100 µM (inactive) and the GI50 [9] was > 100 µM (inactive). The GI50 [12] was > 100 µM (inactive), the GI50 [10] was > 100 µM (inactive) and the GI50 [13] was > 100 µM (inactive).

In the case of C[N+](C)(C)Cc1c(CC#N)[nH]c2ccccc12, the GI50 [1] is reported as > 100 µM (inactive), the GI50 [2] is reported as > 100 µM (inactive) and the GI50 [3] is reported as 36.9 µM (inactive). The GI50 [4] was 96.2 µM (inactive), the GI50 [5] was 25.8 µM (inactive) and the GI50 [6] was > 100 µM (inactive). The GI50 [7] was 96.8 µM (inactive), the GI50 [11] was 44.6 µM (inactive) and the GI50 [8] was 1.2 µM (inactive). The GI50 [9] was > 100 µM (inactive), the GI50 [12] was > 100 µM (inactive) and the GI50 [10] was > 100 µM (inactive). For the same molecule, the GI50 [13] was 36.8 µM (inactive).

For Cn1c(C2CC(C)(C)c3c2c2ccccc2n3C)cc2ccccc21 (configuration not stated), the GI50 [1] was > 304 µM (inactive), the GI50 [2] was 195 µM (inactive) and the GI50 [3] was > 304 µM (inactive). For the same molecule, the GI50 [5] was > 304 µM (inactive), the GI50 [6] was 225 µM (inactive) and the GI50 [7] was 192 µM (inactive). For the same molecule, the GI50 [11] was > 304 µM (inactive), the GI50 [9] was 79.4 µM (inactive) and the GI50 [12] was > 304 µM (inactive). For the same molecule, the GI50 [13] was 72.8 µM (inactive).

In the case of NC1=C(Br)C(=O)c2ncccc2C1=O, the GI50 [1] is reported as 1.71 µM (inactive), the GI50 [2] is reported as 0.367 µM (active) and the GI50 [3] is reported as 0.505 µM (active). For the same molecule, the GI50 [4] was 0.183 µM (active), the GI50 [5] was 0.277 µM (active) and the GI50 [6] was 1.11 µM (active). For the same molecule, the GI50 [7] was 1.51 µM (inactive), the GI50 [11] was 0.173 µM (active) and the GI50 [8] was 1.37 µM (inactive). For the same molecule, the GI50 [9] was 0.189 µM (active), the GI50 [12] was 0.466 µM (active) and the GI50 [10] was 3.72 µM (inactive). For the same molecule, the GI50 [13] was 0.321 µM (active).

CC/C=C1\N=C(c2ccc(Cl)cc2)OC1=O was tested, and the GI50 [1] was > 100 µM (inactive), the GI50 [2] was > 100 µM (inactive) and the GI50 [3] was > 100 µM (inactive). For the same molecule, the GI50 [4] was > 100 µM (inactive), the GI50 [5] was > 100 µM (inactive) and the GI50 [6] was > 100 µM (inactive). For the same molecule, the GI50 [7] was > 100 µM (inactive), the GI50 [8] was > 100 µM (inactive) and the GI50 [9] was > 100 µM (inactive). The GI50 [12] was > 100 µM (inactive), the GI50 [10] was > 100 µM (inactive) and the GI50 [13] was > 100 µM (inactive).

With Cc1ccc(C)c2c1CCc1cc3ccccc3nc1-2 the GI50 [1] was > 100 µM (inactive), the GI50 [2] was > 100 µM (inactive) and the GI50 [4] was 98.6 µM (inactive). For the same molecule, the GI50 [5] was > 100 µM (inactive), the GI50 [6] was > 100 µM (inactive) and the GI50 [7] was > 100 µM (inactive). For the same molecule, the GI50 [8] was > 100 µM (inactive), the GI50 [9] was > 100 µM (inactive) and the GI50 [12] was > 100 µM (inactive). For the same molecule, the GI50 [10] was > 100 µM (inactive) and the GI50 [13] was > 100 µM (inactive).

In the case of Cc1ccccc1C(=O)N1CCN(C(=O)c2ccccc2C)CC1, the GI50 [2] is reported as > 100 µM (inactive), the GI50 [3] is reported as > 100 µM (inactive) and the GI50 [4] is reported as > 100 µM (inactive). For the same molecule, the GI50 [5] was > 100 µM (inactive), the GI50 [6] was > 100 µM (inactive) and the GI50 [7] was > 100 µM (inactive). The GI50 [11] was > 100 µM (inactive), the GI50 [8] was > 100 µM (inactive) and the GI50 [9] was > 100 µM (inactive). For the same molecule, the GI50 [10] was > 100 µM (inactive) and the GI50 [13] was > 100 µM (inactive).

For O=Cc1cn(S(=O)(=O)c2ccccc2)c2ccccc12, the GI50 [2] was 48.3 µM (inactive), the GI50 [3] was 16.7 µM (inactive) and the GI50 [4] was 26.2 µM (inactive). The GI50 [5] was 19.9 µM (inactive), the GI50 [6] was > 100 µM (inactive) and the GI50 [11] was 20.1 µM (inactive). For the same molecule, the GI50 [8] was 33.6 µM (inactive), the GI50 [9] was 27.5 µM (inactive) and the GI50 [12] was 34.5 µM (inactive). The GI50 [10] was > 100 µM (inactive).
